Experiments:
[1] = tested on: THP-1 monocytic cells; experiment: Sulforhodamine B (SRB) assay, IC50 on THP-1 cells; type: cell-based, human
Description: (§1) The sulforhodamine B (SRB) assay^21 was used to determine the drug concentration that half of the cell growth/viability is inhibited (IC50). Cells were cultured in 96-well plates, with 5,000 cells in 100 μL of culture medium per well. The rest of the protocol was the same as described previously^22,23.
(§2) Data shown in Table 1 are IC50 values of VR23 and other compounds, which were determined using sulforhodamine B (SRB) assays on immunologically relevant cells (THP-1, SW-982 and PBMC). […] Two well-known proteasome inhibitors, BTZ and CFZ, were included for comparison since VR23 is also a proteasome inhibitor, albeit targeting different subunits^2. The widely used anti-inflammatory DEX was included, also for comparison.
(§3) THP-1, SW982 and PBMC cells (5,000 cells/well) were treated with each compound for 48 hours. The IC50, the drug concentration reducing cell growth/viability by 50%, was determined by a dose-response four-parameter curve (generated with GraphPad Prism V. 4.02) formed by 10 two-fold dilutions (n=3).

[2] = tested on: PBMC cells; experiment: Sulforhodamine B (SRB) assay, IC50 on PBMC; type: cell-based, human
Description: as §1, §2, §3

[3] = tested on: IL-1β, TNF-α, IL-6 and IL-8 secretion in THP-1 cells; experiment: Cytokine secretion in LPS-stimulated THP-1 cells (ELISA); type: cell-based, human; details: THP-1, LPS 5 μg/mL, 6 hours
Description: For comparison, BTZ (6 nM), CFZ (1 nM), and DEX (2 μM) were also included. *, **, and *** are p<0.05, p<0.01, and p<0.001, respectively, which denote a significant difference from the LPS-only group. The mean±SEM (n=3) values were determined by a Dunnett's test.
The enzyme-linked immunosorbent assay (ELISA) is a quantitative measurement based on sandwich-based enzyme linking, using a protein-specific capture antibody to determine the levels of single or multiple chemokines and cytokines.
Data shown in FIG. 11 are the results of experiments carried out to investigate VR23's effect on the levels of inflammatory cytokines. […] For comparison, BTZ (6 nM), CFZ (1 nM) and DEX (2 μM) were also included. The levels of cytokine secreted in cell culture supernatants were measured by a single-analyte ELISA. The IC50 value of VR23 is 3 μM and the concentrations of BTZ, CFZ and DEX used are their respective IC50 values.

[4] = tested on: human fibroblast-like synoviocytes from rheumatoid arthritis patients (HFLS-RA); experiment: Viability test, HFLS-RA cells; type: cell-based; details: 6 hours, IL-1β 10 ng/mL, VR23 1.25-5.0 μM, HCQ 7.5-30 μM
Description: The values presented are the mean±SEM (n=3).
The CCK-8 assay was used to count viable cells under the various treatment conditions. Briefly, cells were cultured in 11 columns of a 96-well clustered plate, with 5,000 cells in 100 μL of culture medium per well, excluding one column for a media-only control. The plate was incubated overnight at 37° C. in the humidified conditions, followed by treatment with test compounds diluted in the culture medium (10 μL). Each column was treated with a different condition so that each treatment could have 8 repeats. […] The absorbance was measured using an automatic plate reader (Synergy H4 Hybrid Multi-Mode Microplate Reader, BioTek, Montreal, Canada) at 450 nm wavelength. The cell viability of each treatment sample was determined by using the following equation (%)=(Abstrtmt-Absmedia)/(AbsuT-Absmedia)*100, where Abstrtmt is the absorbance value of cells with the various treatment conditions; Absmedia is the absorbance of the well containing media only; AbsuT is the absorbance of the wells with untreated cells.
This finding was extended to human cells relevant to autoimmune diseases. […] Cytokine levels in cell culture supernatants were determined by a single-analyte ELISA. […] The cytokine secretion was measured in cell culture supernatants by a single-analyte ELISA.

O=[N+]([O-])c1ccc(S(=O)(=O)N2CCN(c3ccnc4cc(Cl)ccc34)CC2)c([N+](=O)[O-])c1 [VR23, 7-chloro-4-(4-(2,4-dinitrophenylsulfonyl)piperazin-1-yl)quinoline]
IC50 ([1]; 48 hours): 2.58 ± 0.5 µM
IC50 ([1]; Homo sapiens, THP-1, 48 h): 3 µM
IC50 ([2]; 48 hours): 3.14 ± 0.26 µM
IC50 ([2]; Homo sapiens, 48 h): 3 µM
level of IL-6 in response to LPS [3]: especially effective on reducing the level of IL-6
cytokine secretion, dose dependence ([3]; VR23 0.5, 1.0, 2, 3, 4 or 6 μM): decreased cytokine secretion in a dose dependent manner
levels of inflammatory cytokines IL-1β, TNF-α, IL-6, IL-8 ([3]; VR23 0.5-6 μM, BTZ 6 nM, CFZ 1 nM, DEX 2 μM): substantial and comparable anti-inflammatory activities
cell viability [4]: none of the conditions examined significantly affected the viability
